Consider 34 compounds from patent US20220226299A1 (NIPPON CHEMIPHAR CO., LTD., priority 2019, published 2022).

For orientation: IC50 means the concentration at which inhibition is half-maximal.

The target of the test is T1, human Cav3.2 channels (Homo sapiens, UniProt O95180).
T1 construct: human Cav3.2 channel ORF (Open Reading Frame) gene; expressed in transfected cells; host or cells: HEK293 cells (ATCC No. CRL-1573), pcDNA3.1(+) plasmid
T1 sequence (O95180 whole entry): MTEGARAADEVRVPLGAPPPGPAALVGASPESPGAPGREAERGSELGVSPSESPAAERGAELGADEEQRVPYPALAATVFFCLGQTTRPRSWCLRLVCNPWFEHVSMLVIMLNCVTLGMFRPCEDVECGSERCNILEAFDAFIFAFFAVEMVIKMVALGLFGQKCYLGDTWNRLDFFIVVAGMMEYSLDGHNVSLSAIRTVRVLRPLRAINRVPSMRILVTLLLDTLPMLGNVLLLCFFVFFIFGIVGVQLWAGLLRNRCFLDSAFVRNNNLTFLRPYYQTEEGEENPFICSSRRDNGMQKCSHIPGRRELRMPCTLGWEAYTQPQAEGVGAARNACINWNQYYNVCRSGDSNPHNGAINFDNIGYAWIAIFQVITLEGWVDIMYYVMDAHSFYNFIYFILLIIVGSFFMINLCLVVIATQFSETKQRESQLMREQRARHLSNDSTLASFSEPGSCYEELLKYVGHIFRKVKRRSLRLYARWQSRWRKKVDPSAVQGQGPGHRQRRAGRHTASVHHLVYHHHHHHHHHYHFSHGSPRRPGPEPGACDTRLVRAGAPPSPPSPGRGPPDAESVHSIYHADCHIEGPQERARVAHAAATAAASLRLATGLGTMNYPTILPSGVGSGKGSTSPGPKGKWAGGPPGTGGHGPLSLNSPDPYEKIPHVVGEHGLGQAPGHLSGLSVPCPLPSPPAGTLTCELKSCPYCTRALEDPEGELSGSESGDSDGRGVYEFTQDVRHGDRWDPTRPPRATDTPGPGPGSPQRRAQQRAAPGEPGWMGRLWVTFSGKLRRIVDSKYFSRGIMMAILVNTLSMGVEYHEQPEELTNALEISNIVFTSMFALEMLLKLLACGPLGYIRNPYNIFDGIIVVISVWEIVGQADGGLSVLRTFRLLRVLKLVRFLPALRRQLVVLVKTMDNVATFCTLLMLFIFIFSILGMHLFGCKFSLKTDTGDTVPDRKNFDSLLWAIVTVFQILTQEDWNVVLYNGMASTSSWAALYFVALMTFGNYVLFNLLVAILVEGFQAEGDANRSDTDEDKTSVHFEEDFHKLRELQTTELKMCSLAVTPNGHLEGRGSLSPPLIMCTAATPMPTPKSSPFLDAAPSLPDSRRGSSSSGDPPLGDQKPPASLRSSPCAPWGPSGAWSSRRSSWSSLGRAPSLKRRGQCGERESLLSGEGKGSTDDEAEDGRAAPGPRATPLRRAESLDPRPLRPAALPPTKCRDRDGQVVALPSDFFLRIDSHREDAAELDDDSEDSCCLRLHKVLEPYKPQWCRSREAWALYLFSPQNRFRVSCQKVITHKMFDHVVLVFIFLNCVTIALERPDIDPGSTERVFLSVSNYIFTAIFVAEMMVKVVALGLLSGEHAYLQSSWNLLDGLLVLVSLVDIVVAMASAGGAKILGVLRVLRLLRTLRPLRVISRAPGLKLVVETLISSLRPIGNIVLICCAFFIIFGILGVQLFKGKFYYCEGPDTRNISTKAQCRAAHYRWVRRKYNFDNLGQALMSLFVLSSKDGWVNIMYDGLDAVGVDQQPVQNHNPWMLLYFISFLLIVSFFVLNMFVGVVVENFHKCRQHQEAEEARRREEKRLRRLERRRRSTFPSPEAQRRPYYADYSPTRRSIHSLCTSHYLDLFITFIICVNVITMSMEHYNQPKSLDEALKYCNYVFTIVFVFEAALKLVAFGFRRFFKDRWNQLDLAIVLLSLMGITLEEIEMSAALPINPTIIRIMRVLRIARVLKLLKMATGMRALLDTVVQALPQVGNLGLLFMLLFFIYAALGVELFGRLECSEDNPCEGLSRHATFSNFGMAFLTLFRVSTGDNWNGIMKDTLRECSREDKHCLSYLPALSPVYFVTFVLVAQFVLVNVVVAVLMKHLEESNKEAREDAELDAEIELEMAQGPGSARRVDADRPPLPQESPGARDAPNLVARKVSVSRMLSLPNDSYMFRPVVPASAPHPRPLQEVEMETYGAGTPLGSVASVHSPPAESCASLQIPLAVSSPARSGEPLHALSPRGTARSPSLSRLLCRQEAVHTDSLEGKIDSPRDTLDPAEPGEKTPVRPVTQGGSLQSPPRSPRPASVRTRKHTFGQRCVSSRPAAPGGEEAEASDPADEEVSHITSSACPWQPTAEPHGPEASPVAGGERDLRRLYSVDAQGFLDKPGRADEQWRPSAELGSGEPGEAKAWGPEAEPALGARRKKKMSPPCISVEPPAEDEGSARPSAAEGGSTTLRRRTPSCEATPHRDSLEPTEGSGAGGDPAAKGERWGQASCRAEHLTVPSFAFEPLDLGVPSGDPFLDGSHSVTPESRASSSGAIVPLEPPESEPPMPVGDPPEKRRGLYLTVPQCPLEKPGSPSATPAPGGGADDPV
In words: T-type calcium blocking action: intracellular calcium (Fluo-4 AM fluorescence) in HEK293 cells steadily expressing human Cav3.2 channels. Conditions: HEK293 cells expressing human Cav3.2; KCl-stimulated calcium influx, Fluo-4 fluorescence; Tables 1 to 3. Format: cell-based. From the text: T-Type Calcium Blocking Action
(1) Construction of Cells Steadily Expressing Human Cav3.2 Channels
A sequence obtained by adding HindIII site and a kozak sequence (GCCACC) to the 5′-side of human Cav3.2 channel ORF (Open Reading Frame) gene and adding a KpnI site to the 3′-side of the gene, was incorporated into pcDNA3.1(+) (Thermo Fisher Scientific, #V790-20), and the plasmid was introduced into HEK293 cells (ATCC No. CRL-1573) according to the protocol of FuGENE (registered trademark) HD Transfection Reagent (Promega, #E2311).
(2) Method for Measuring Intracellular Calcium Concentration
The cells steadily expressing human Cav3.2 channels produced by testing method (1) were seeded on a 96-well plate (Dulbecco's modified Eagle medium (DMEM) medium containing 10% fetal bovine serum (FBS) was used as a medium). The cells were seeded and cultured for 48 hours under conditions of 37° C. and 5% CO2. Thereafter, the cells were washed with buffer A in order to remove the medium. Each well was treated with 80 μL of a fluorescent dye solution produced by mixing 22 μg of a fluorescent calcium indicator, Fluo-4 AM (Dojindo Laboratories, #F311), 20 μL of DMSO, 1 μL of 10% Pluronic F-127 (Thermo Fisher Scientific, #P6866), and 4 mL of buffer A. The cells were allowed to stand for 45 minutes at room temperature under light-shielded conditions, and then washed with buffer B in order to completely replace the solution. 70 μL of DMSO having the same concentration as that of a test compound as a negative control and 70 μL of a mixture containing 1 μM of a known blocker RQ-00311651 and the test compound as a positive control were each added to each well in a form of being contained in the buffer B. The test compound was dissolved in 100% DMSO and added at a final concentration of 0.1%. Then, the cells were further allowed to stand at room temperature under light-shielded conditions for 15 minutes and placed in a microplate reader EnVision (PerkinElmer). Background fluorescence was measured in each well, and then a 5 μg/mL grammicidin solution was added to buffer B at 10 μL/well. After 90 seconds, baseline fluorescence was measured. Thereafter, 83.8 mM KCl was added to buffer B at 20 μL/well, and an increase in fluorescence caused by calcium influx generated by the stimulus was measured for 10 seconds. A blocking percentage was calculated from a maximum fluorescence increase value from a baseline, a logarithmic value of a compound concentration and blockery activity were plotted, and thereby an IC50 value was calculated. In the measurement, fluorescence at 510 nm that was emitted when the cells were irradiated with excitation light at 485 nm was observed.
Buffer A: 140 mM NaCl, 5 mM KCl, 1 mM MgCl2, 0.5 mM CaCl2, 10 mM Glucose, 10 mM HEPES, pH 7.3
Buffer B: 137.9 mM Choline-Cl, 4.1 mM KCl, 1 mM MgCl2, 0.5 mM CaCl2, 10 mM Glucose, 10 mM HEPES, pH 7.3
Background: Calcium flux is commonly read through the fluorescence of an indicator in the cells.
Take `O=C(N[C@@H]1CCN(c2ccc(C(F)(F)F)cc2)C1)C1CC1c1nc2ccccc2[nH]1` (single isomer, unassigned) [Example 52]: the IC50 is 110 nM.

Turning to `O=C(N[C@H]1CCN(c2ccc(C(F)(F)F)cc2)C1)C1CC1c1nc2ccccc2[nH]1` (single isomer, unassigned) [Example 53], the half-inhibitory concentration (IC50) came to 1000 nM.

On to `O=C(N[C@@H]1CCCN(c2ccc(C(F)(F)F)nc2)C1)C1CC1c1nc2ccccc2[nH]1` (single isomer, unassigned) [Example 63A], for which the IC50 was found to be 190 nM.

Regarding `O=C(N[C@@H]1CCCN(c2ccc(C(F)(F)F)nc2)C1)C1CC1c1nc2ccccc2[nH]1` (single isomer, unassigned) [Example 63B], the half-maximal inhibitory concentration (IC50) was over 10000 nM.

Consider `O=C(N[C@@H]1CCN(c2ccc(C(F)(F)F)nc2)C1)C1CC1c1c[nH]c2ccccc12` (single isomer, unassigned) [Example 66], for which the half-maximal inhibitory concentration (IC50) was 69 nM.

For the compound `O=C(N[C@@H]1CCN(c2cncc(C(F)(F)F)c2)C1)C1CC1c1cc(Cl)cc(Cl)c1` (single isomer, unassigned) [Example 99A], the IC50 is 90 nM.

As for `O=C(N[C@@H]1CCN(c2cncc(C(F)(F)F)c2)C1)C1CC1c1cc(Cl)cc(Cl)c1` (single isomer, unassigned) [Example 99B], the half-maximal inhibitory concentration (IC50) is 480 nM.

With `O=C(N[C@@H]1CCN(c2cncc(C(F)(F)F)c2)C1)C1CC1c1ccc(Br)cc1` (single isomer, unassigned) [Example 100A], the half-maximal inhibitory concentration (IC50) was found to be 9.3 nM.

As to `O=C(N[C@@H]1CCN(c2cncc(C(F)(F)F)c2)C1)C1CC1c1ccc(Br)cc1` (single isomer, unassigned) [Example 100B], the 50% inhibitory concentration (IC50) amounted to 460 nM.

On to `O=C(N[C@@H]1CCN(c2cncc(C(F)(F)F)c2)C1)C1CC1c1ccc(C2CC2)cc1` (single isomer, unassigned) [Example 106A], for which the half-inhibitory concentration (IC50) was determined as 11 nM.

On to `O=C(N[C@@H]1CCN(c2cncc(C(F)(F)F)c2)C1)C1CC1c1ccc(C2CC2)cc1` (single isomer, unassigned) [Example 106B], for which the IC50 stood at 400 nM.

Take `O=C(N[C@@H]1CCN(c2cncc(C(F)(F)F)c2)C1)C1CC1c1ccc(F)c(F)c1` (single isomer, unassigned) [Example 107A]: the concentration for half-maximal inhibition (IC50) is 4.7 nM.

Consider `O=C(N[C@@H]1CCN(c2cncc(C(F)(F)F)c2)C1)C1CC1c1ccc(F)c(F)c1` (single isomer, unassigned) [Example 107B], for which the half-inhibitory concentration (IC50) was 560 nM.

For the compound `O=C(N[C@@H]1CCN(c2cncc(C(F)(F)F)c2)C1)C1CC1c1ccc(Cl)cc1` (single isomer, unassigned) [Example 108A], the IC50 is 5.7 nM.

Regarding `O=C(N[C@@H]1CCN(c2cncc(C(F)(F)F)c2)C1)C1CC1c1ccc(Cl)cc1` (single isomer, unassigned) [Example 108B], the 50% inhibitory concentration (IC50) turned out to be 200 nM.

On to `NC(C(=O)N[C@@H]1CCN(c2cncc(C(F)(F)F)c2)C1)c1ccc(C2CC2)cc1` (single isomer, unassigned) [Example 137A], for which the IC50 is 100 nM.

As to `NC(C(=O)N[C@@H]1CCN(c2cncc(C(F)(F)F)c2)C1)c1ccc(C2CC2)cc1` (single isomer, unassigned) [Example 137B], the concentration for half-maximal inhibition (IC50) was determined as 820 nM.

For `O=C(Cc1ccc(N2CC3CC2CO3)cc1)N[C@@H]1CCN(c2cncc(C(F)(F)F)c2)C1` (single isomer, unassigned) [Example 165], the 50% inhibitory concentration (IC50) turned out to be 30 nM.

Consider `O=C(Cc1ccc(N2CC3CC2CO3)cc1)N[C@@H]1CCN(c2ccc(C(F)(F)F)nc2)C1` (single isomer, unassigned) [Example 166], for which the IC50 was 220 nM.

In the case of `O=C(Cc1ccc(C2CC2)cc1)N[C@@H]1CCN(c2cncc(C(F)(F)F)c2)C1` [Example 1, (R)-2-(4-cyclopropylphenyl)-N-(1-(5-(trifluoromethyl)pyridin-3-yl)pyrrolidin-3-yl)acetamide], the half-inhibitory concentration (IC50) amounted to 13 nM.

Take `O=C(Cc1ccc(C(F)(F)F)cn1)N[C@@H]1CCN(c2cncc(C(F)(F)F)c2)C1` [Example 2, (R)-2-(5-(trifluoromethyl)pyridin-2-yl)-N-(1-(5-(trifluoromethyl)pyridin-3-yl)pyrrolidin-3-yl)acetamide]: the IC50 was 1300 nM.

`CC(C)c1ccc(CC(=O)N[C@@H]2CCN(c3cnc(C(F)(F)F)nc3)C2)cc1` [Example 3, (R)-2-(4-isopropylphenyl)-N-(1-(2-(trifluoromethyl)pyrimidin-5-yl)pyrrolidin-3-yl)acetamide]: the 50% inhibitory concentration (IC50) worked out at 850 nM.

Consider `CC(C)c1ccc(CC(=O)N[C@@H]2CCN(c3cncc(C(F)(F)F)c3)C2)cc1` [Example 4, (R)-2-(4-isopropylphenyl)-N-(1-(5-(trifluoromethyl)pyridin-3-yl)pyrrolidin-3-yl)acetamide], for which the IC50 came to 14 nM.

Regarding `O=C(Cc1ccc(C2CC2)cc1)N[C@H]1CN(c2cncc(C(F)(F)F)c2)C[C@@H]1O` [Example 5, 2-(4-cyclopropylphenyl)-N-((3S,4S)-4-hydroxy-1-(5-(trifluoromethyl)pyridin-3-yl)pyrrolidin-3-yl)acetamide], the IC50 came out at 290 nM.

On to `O=C(Cc1ccc(C2CC2)cc1)N[C@H]1CN(c2cncc(C(F)(F)F)c2)CC12CC2` [Example 6, (R)-2-(4-cyclopropylphenyl)-N-(5-(5-(trifluoromethyl)pyridin-3-yl)-5-azaspiro[2.4]heptan-7-yl) acetamide], for which the IC50 is 130 nM.

Regarding `O=C(Cc1ccc(C2CC2)cc1)N[C@H]1CN(c2ccc(C(F)(F)F)nc2)CC12CC2` [Example 7, (R)-2-(4-cyclopropylphenyl)-N-(5-(6-(trifluoromethyl)pyridin-3-yl)-5-azaspiro[2.4]heptan-7-yl) acetamide], the IC50 was 97 nM.

With `O=C(Cc1ccc(C2CC2)cc1)N[C@H]1CN(c2nc(C(F)(F)F)cs2)CC12CC2` [Example 8, (R)-2-(4-cyclopropylphenyl)-N-(5-(4-(trifluoromethyl)thiazol-2-yl)-5-azaspiro[2.4]heptan-7-yl) acetamide], the IC50 is 200 nM.

Regarding `C[C@H]1C[C@@H](NC(=O)Cc2ccc(C3CC3)cc2)CN1c1cncc(C(F)(F)F)c1` [Example 9, 2-(4-cyclopropylphenyl)-N-((3R,5S)-5-methyl-1-(5-(trifluoromethyl)pyridin-3-yl)pyrrolidin-3-yl)acetamide], the IC50 is 480 nM.

With `O=C(Cc1ccc(C2CC2)cc1)N[C@]12CC1CN(c1cncc(C(F)(F)F)c1)C2` (stereo partly shown) [Example 10, 2-(4-cyclopropylphenyl)-N-(3-(5-(trifluoromethyl)pyridin-3-yl)-3-azabicyclo[3.1.0]hexan-1-yl) acetamide], the half-maximal inhibitory concentration (IC50) was 410 nM.

Regarding `O=C(Cc1ccc(C(F)(F)F)cc1)N[C@@H]1CCN(c2cncc(C(F)(F)F)n2)C1` [Example 11, (R)-2-(4-(trifluoromethyl)phenyl)-N-(1-(6-(trifluoromethyl)pyrazin-2-yl)pyrrolidin-3-yl)acetamide], the IC50 is 180 nM.

As to `N#Cc1ncc(N2CC[C@@H](NC(=O)Cc3ccc(C4CC4)cc3)C2)cc1C(F)(F)F` [Example 12, (R)—N-(1-(6-cyano-5-(trifluoromethyl)pyridin-3-yl)pyrrolidin-3-yl)-2-(4-cyclopropylphenyl)acetamide], the IC50 amounted to 280 nM.

On to `COC(=O)C1(NC(=O)Cc2ccc(C3CC3)cc2)CCN(c2cncc(C(F)(F)F)c2)C1` (stereo not shown) [Example 13, Methyl 3-(2-(4-cyclopropylphenyl)acetamido)-1-(5-(trifluoromethyl)pyridin-3-yl)pyrrolidine-3-carboxylate], for which the half-maximal inhibitory concentration (IC50) was 18 nM.

In the case of `O=C(Cc1ccc(C2CC2)cc1)NC1(C(=O)O)CCN(c2cncc(C(F)(F)F)c2)C1` (stereo not shown) [Example 14, 3-(2-(4-cyclopropylphenyl)acetamido)-1-(5-(trifluoromethyl)pyridin-3-yl)pyrrolidine-3-carboxylic acid], the IC50 is 5200 nM.

Take `O=C(Cc1ccc2cn[nH]c2c1)N[C@@H]1CCN(c2cncc(C(F)(F)F)c2)C1` [Example 15, (R)-2-(1H-indazol-6-yl)-N-(1-(5-(trifluoromethyl)pyridin-3-yl)pyrrolidin-3-yl)acetamide]: the IC50 came to 370 nM.
